Measurements from ChEMBL document CHEMBL5325403, “Benzenesulfonyl thiazoloimines as unique multitargeting antibacterial agents towards Enterococcus faecalis” (Eur J Med Chem, 2023).
Values after ≈ are worked out from the molar mass of the structure shown.

Tests used:
Format in all cases: functional
Staphylococcus aureus [1] = experiment: Antibacterial activity against methicillin-resistant Staphylococcus aureus N315 assessed as inhibition of bacterial growth by continuous dilution method
Enterococcus faecalis = experiment: Antibacterial activity against Enterococcus faecalis assessed as inhibition of bacterial growth by continuous dilution method
Staphylococcus aureus [2] = experiment: Antibacterial activity against Staphylococcus aureus assessed as inhibition of bacterial growth by continuous dilution method
Staphylococcus aureus [3] = experiment: Antibacterial activity against Staphylococcus aureus ATCC 25923 assessed as inhibition of bacterial growth by continuous dilution method
Staphylococcus aureus [4] = experiment: Antibacterial activity against Staphylococcus aureus ATCC 29213 assessed as inhibition of bacterial growth by continuous dilution method
Klebsiella pneumoniae = experiment: Antibacterial activity against Klebsiella pneumoniae assessed as inhibition of bacterial growth by continuous dilution method
Escherichia coli [5] = experiment: Antibacterial activity against Escherichia coli assessed as inhibition of bacterial growth by continuous dilution method
Pseudomonas aeruginosa [6] = experiment: Antibacterial activity against Pseudomonas aeruginosa assessed as inhibition of bacterial growth by continuous dilution method
Acinetobacter baumannii = experiment: Antibacterial activity against Acinetobacter baumannii assessed as inhibition of bacterial growth by continuous dilution method
Pseudomonas aeruginosa [7] = experiment: Antibacterial activity against Pseudomonas aeruginosa ATCC 27853 assessed as inhibition of bacterial growth by continuous dilution method
Escherichia coli [8] = experiment: Antibacterial activity against Escherichia coli ATCC 25922 assessed as inhibition of bacterial growth by continuous dilution method

| Structure (SMILES) | MIC (Staphylococcus aureus [1]) [µg/mL] | MIC (Enterococcus faecalis) [µg/mL] | MIC (Staphylococcus aureus [2]) [µg/mL] | MIC (Staphylococcus aureus [3]) [µg/mL] | MIC (Staphylococcus aureus [4]) [µg/mL] | MIC (Klebsiella pneumoniae) [µg/mL] | MIC (Escherichia coli [5]) [µg/mL] | MIC (Pseudomonas aeruginosa [6]) [µg/mL] | MIC (Acinetobacter baumannii) [µg/mL] | MIC (Pseudomonas aeruginosa [7]) [µg/mL] | MIC (Escherichia coli [8]) [µg/mL] |
| --- | --- | --- | --- | --- | --- | --- | --- | --- | --- | --- | --- |
| CC(=O)Nc1ccc(S(=O)(=O)C/C(=N/NC(=O)c2ccncc2)c2nccs2)cc1 | 32 (≈ 72.2 µM) | 4 (≈ 9.02 µM) | 16 (≈ 36.1 µM) | 8 (≈ 18 µM) | 4 (≈ 9.02 µM) | 32 (≈ 72.2 µM) | 128 (≈ 289 µM) | 8 (≈ 18 µM) | 32 (≈ 72.2 µM) | 4 (≈ 9.02 µM) | 128 (≈ 289 µM) |
| CCCCCCO/N=C(/CS(=O)(=O)c1ccc(N)cc1)c1nccs1 | 128 (≈ 335 µM) | 8 (≈ 21 µM) | 32 (≈ 83.9 µM) | 64 (≈ 168 µM) | 64 (≈ 168 µM) | 32 (≈ 83.9 µM) | 16 (≈ 41.9 µM) | 16 (≈ 41.9 µM) | 64 (≈ 168 µM) | 16 (≈ 41.9 µM) | 16 (≈ 41.9 µM) |
| Nc1ccc(S(=O)(=O)C/C(=N/OCc2ccc(Cl)cc2)c2nccs2)cc1 | 64 (≈ 152 µM) | 8 (≈ 19 µM) | 64 (≈ 152 µM) | 64 (≈ 152 µM) | 128 (≈ 303 µM) | 16 (≈ 37.9 µM) | 16 (≈ 37.9 µM) | 64 (≈ 152 µM) | 64 (≈ 152 µM) | 8 (≈ 19 µM) | 8 (≈ 19 µM) |
| CCCCCCO/N=C(/CS(=O)(=O)c1ccc(NC(C)=O)cc1)c1nccs1 | 32 (≈ 75.6 µM) | 32 (≈ 75.6 µM) | 64 (≈ 151 µM) | 64 (≈ 151 µM) | 128 (≈ 302 µM) | 64 (≈ 151 µM) | 32 (≈ 75.6 µM) | 32 (≈ 75.6 µM) | 128 (≈ 302 µM) | 32 (≈ 75.6 µM) | 8 (≈ 18.9 µM) |
| Nc1ccc(S(=O)(=O)C/C(=N/OCc2ccc(Cl)cc2Cl)c2nccs2)cc1 | 64 (≈ 140 µM) | 16 (≈ 35.1 µM) | 64 (≈ 140 µM) | 64 (≈ 140 µM) | 64 (≈ 140 µM) | 32 (≈ 70.1 µM) | 32 (≈ 70.1 µM) | 64 (≈ 140 µM) | 64 (≈ 140 µM) | 16 (≈ 35.1 µM) | 16 (≈ 35.1 µM) |
| CC(=O)Nc1ccc(S(=O)(=O)C/C(=N/Nc2ccc([N+](=O)[O-])cc2)c2nccs2)cc1 | 256 (≈ 557 µM) | 256 (≈ 557 µM) | 32 (≈ 69.6 µM) | 256 (≈ 557 µM) | 256 (≈ 557 µM) | 256 (≈ 557 µM) | 64 (≈ 139 µM) | 32 (≈ 69.6 µM) | 256 (≈ 557 µM) | 64 (≈ 139 µM) | 32 (≈ 69.6 µM) |
| CC(=O)Nc1ccc(S(=O)(=O)C/C(=N/OCC#N)c2nccs2)cc1 | 64 (≈ 169 µM) | 64 (≈ 169 µM) | 64 (≈ 169 µM) | 128 (≈ 338 µM) | 64 (≈ 169 µM) | 64 (≈ 169 µM) | 32 (≈ 84.6 µM) | 128 (≈ 338 µM) | 256 (≈ 676 µM) | 64 (≈ 169 µM) | 32 (≈ 84.6 µM) |
